Experimental data: patent US20240366555A1, “SELECTIVE MTORC2 INHIBITOR AND USES THEREOF” (ALIAD BIOPHARMA, priority 2021, published 2024)

Legend:
Format in all cases: in vivo
[1] = system: Pten KO mice; experiment: Elevated plus maze test in Pten KO mice; settings: Pten KO mice administered athyriol; FIG. 2
Experimental: (§1) As Pten KO mice, Ptenf/f_cre/cre KO mice or Ptenf/f_cre/++ Het mice (KD) were obtained by mating Pten floxed/floxed mice and CAMKII-cre mice. DMSO or athyriol was intraperitoneally injected at 5 or 10 mg/kg for 2 weeks from the age of mice of 6 weeks, and a behavioral test was performed in 7 days after administration. Pten floxed/floxed mice were used as littermates of the same age as a normal control group.
In order to confirm whether emotional instability was improved, when athyriol was administered to an autism spectrum disorder animal model, Pten KO mice, an elevated plus maze test was performed. An anxiety disorder animal model behavioral test was evaluated as a tendency to avoid an open arm exposed to the elevated-plus maze and stay in a closed arm. Analysis was conducted with a video tracking system (Ethovision EPM program, Noldus information technology, Wageningen, Netherlands). In the elevated plus maze test measuring emotional instability disorder, when the emotional anxiety increases, the time spent in the closed arm increases compared to the time spent in the open arm.

[2] = system: normal mice; experiment: Y-type maze test in normal mice; settings: 5 mg/kg intraperitoneally, FIG. 14a
Experimental: A Y-maze was performed in a Y-shaped structure maze made of black acrylic material in which an angle of each arm was 120°, and a light and a cam were installed on the ceiling, and it was checked that white mice entered each arm while the surroundings were covered with a curtain. Through this, short-term memory was analyzed. In order to adapt mice to the environment, they were acclimated to the experimental space for 30 minutes. The mice were placed at one end of the maze and allowed to move freely for 12 minutes. Accuracy was measured by dividing time into 8 minutes, 10 minutes and 12 minutes. When the four paws of the mice entered the entrance, it was considered as completely entered. The percentage of accuracy was calculated as the number of times which a mouse entered each maze without repetition. […]
In order to verify this possibility, the efficacy of athyriol on memory ability and sociability of normal animals was investigated. A vehicle (30% DMSO) or athyriol was intraperitoneally injected at a dose of 5 mg/kg into normal mice (n=10), and from the 7th day after administration, the memory ability was evaluated by the same method as the Y-type maze test of Experimental example 1-2, and the sociability was evaluated by the same method as the 3 chamber test of Experimental example 1-6.

[3] = system: Pten KO mice; experiment: 3-chamber test in Pten KO mice
Experimental: as §1
3-chamber test is a test to confirm sociability, social cognition, and social sexual preference, and it was tested by composing sessions 1 and 2. The experimental site was consisted of three chambers made of transparent acrylic walls with a small door and each chamber was length 50 cm×width 100 cm×height 50 cm. Through a cylindrical cage, the sense of smell and minimal contact of the test mice to the unfamiliar mouse were allowed. Prior to the test, the test mice were placed in an intermediate chamber and adapted for 5 minutes with both doors closed. The test was performed by dividing into sessions I and II. In the 3-chamber sociability measurement-1 session, an unfamiliar mouse met first was placed in a transparent box located at one end of the three rooms, and an empty transparent box of the same size was placed in the room located at the other side, and the target mouse was placed in the middle room, and then the time searching toward the counterpart within the social interaction zone was measured.
In the 3-chamber sociability measurement-2 session, an unfamiliar met first was placed in a transparent box located at one end of the three rooms, and the mouse met in the session 1 was placed in the same transparent box in the room located at the other side. […] Therefore, it could be confirmed that the sociability disorder occurring in the Pten KO mice was improved to the normal group level by athyriol administration.

[4] = system: Pten KO mice; experiment: Passive avoidance test in Pten KO mice; settings: FIG. 1b
Experimental: as §1
A passive avoidance test was performed as described in Heo et al. (J. Ethnopharmacol. (2009) 122:20-27). After training the avoidance action by strong light three times a day, an electric foot shock (1 mA, 300 g test) was applied for 3 seconds in a dark room at the same time on the next day. After placing white mice in the same room in 24 hours after applying the shock, an avoidance response by light, that is, the time to move from a bright room to a dark room was measured, and it was dataficated for each group. Exactly after 24 hours of adaptation training, the mice were put back into the bright room and the latency time required to enter the dark room was measured for 720 seconds.

## COc1cc(O)c2c(=O)c3cc(O)c(O)cc3oc2c1 [athyriol, 1,6,7-Trihydroxy-3-methoxy-9H-xanthen-9-on]
[1]
  reduction of time spent in the closed arm: 15%
  time in the center zone: recovered to the normal control group level
[2]
  improvement of memory ability in Y-type maze test compared to vehicle control: ≥ 25%
[3]; 10 mg/kg, session 2
  increase of time of searching the unfamiliar mouse over normal control group, session 2: 14%
[3]; 3-chamber sociability measurement-1 session, FIG. 4
  time searching the unfamiliar mouse, session 1: recovered to the normal control group level in a concentration-dependent manner
[3]; 5 or 10 mg/kg, 3-chamber sociability measurement-2 session
  time of searching the unfamiliar mouse, session 2: increased in a dose-dependent manner
[4]; 5 mg/kg
  memory ability in passive avoidance test: rather more excellent than the control group
[4]; 10 mg/kg, % of the control group
  memory ability in passive avoidance test, level relative to control group: 89%
